Converted amounts (≈) assume the structure as drawn.
Experiments:
Aspergillus niger = assay: Antimicrobial activity against Aspergillus niger MTCC 282 assessed as growth inhibition by broth microdilution method; format: functional
Aspergillus clavatus = assay: Antimicrobial activity against Aspergillus clavatus MTCC 1323 assessed as growth inhibition by broth microdilution method; format: functional
Candida albicans = assay: Antimicrobial activity against Candida albicans MTCC 227 assessed as growth inhibition by broth microdilution method; format: functional
Streptococcus pyogenes = assay: Antimicrobial activity against Streptococcus pyogenes MTCC 442 assessed as growth inhibition by broth microdilution method; format: functional
Staphylococcus aureus = assay: Antimicrobial activity against Staphylococcus aureus MTCC 96 assessed as growth inhibition by broth microdilution method; format: functional
Klebsiella pneumoniae = assay: Antimicrobial activity against Klebsiella pneumoniae MTCC 109 assessed as growth inhibition by broth microdilution method; format: functional
Escherichia coli = assay: Antimicrobial activity against Escherichia coli MTCC 443 assessed as growth inhibition by broth microdilution method; format: functional
Bacillus subtilis = assay: Antimicrobial activity against Bacillus subtilis MTCC 441 assessed as growth inhibition by broth microdilution method; format: functional
Pseudomonas aeruginosa = assay: Antimicrobial activity against Pseudomonas aeruginosa MTCC 1688 assessed as growth inhibition by broth microdilution method; format: functional
[1] = system: Mycobacterium tuberculosis; assay: Antitubercular activity against Mycobacterium tuberculosis H37Rv MTCC 200 assessed as growth inhibition at MIC by L.J. MIC method; format: functional
Plasmodium falciparum = assay: Antimalarial activity against chloroquine-sensitive Plasmodium falciparum 3D7 assessed as inhibition of complete maturation into schizonts after 40 hr; format: functional; details: 3D7, 40 h
[2] = system: Mycobacterium tuberculosis; assay: Antitubercular activity against Mycobacterium tuberculosis H37Rv MTCC 200 assessed as growth inhibition by L.J. MIC method; format: functional
[3] = system: Mycobacterium tuberculosis; assay: Antitubercular activity against Mycobacterium tuberculosis H37Rv MTCC 200 assessed as growth inhibition by BACTEC MGIT method; format: functional
[4] = system: Mycobacterium tuberculosis; assay: Antitubercular activity against Mycobacterium tuberculosis H37Rv MTCC 200 assessed as growth inhibition at 6.25 ug/ml by BACTEC MGIT method; format: functional
Vero = assay: Cytotoxicity against Chlorocebus aethiops (African green monkey) Vero cells assessed as inhibition of cell viability at equal to and greater than MIC for Mycobacterium tuberculosis H37Rv after 72 hr by MTT assay; format: cell-based; details: chlorocebus sabaeus

Molecule | MIC99 (Aspergillus niger) | MIC99 (Aspergillus clavatus) | MIC99 (Candida albicans) | MIC99 (Streptococcus pyogenes) | MIC99 (Staphylococcus aureus) | MIC99 (Klebsiella pneumoniae) | MIC99 (Escherichia coli) | MIC99 (Bacillus subtilis) | MIC99 (Pseudomonas aeruginosa) | inhibition (Growth inhibition) [1] | MIC (Plasmodium falciparum) | MIC [2] | MIC [3] | inhibition at 6.25 µg/mL [4] | Activity (Vero)
NYSTATIN | 100 µg/mL | 100 µg/mL | 100 µg/mL | – | – | – | – | – | – | – | – | – | – | – | –
CC1(C)S[C@@H]2[C@H](NC(=O)[C@H](N)c3ccccc3)C(=O)N2[C@H]1C(=O)O [AMPICILLIN] | – | – | – | 100 µg/mL | 250 µg/mL | 100 µg/mL | 100 µg/mL | 100 µg/mL | 100 µg/mL | – | – | – | – | – | –
O=C1C(=O)N(CCSC(=S)N2CCN(c3ccc(Cl)c(Cl)c3)CC2)c2ccc(F)cc21 | 100 µg/mL | 100 µg/mL | 100 µg/mL | 62.5 µg/mL | 100 µg/mL | 62.5 µg/mL | 62.5 µg/mL | 200 µg/mL | 100 µg/mL | 99% | 0.043 µg/mL (≈ 0.0863 µM) | 3.1 µg/mL (≈ 6.22 µM) | 6.25 µg/mL (≈ 12.5 µM) | 99% | Non-toxic
COC1=CC(=O)C[C@@H](C)[C@]12Oc1c(Cl)c(OC)cc(OC)c1C2=O [GRISEOFULVIN] | 100 µg/mL | 100 µg/mL | 500 µg/mL | – | – | – | – | – | – | – | – | – | – | – | –
CCn1cc(C(=O)O)c(=O)c2cc(F)c(N3CCNCC3)cc21 [NORFLOXACIN] | – | – | – | ≤ 10 µg/mL | ≤ 10 µg/mL | ≤ 10 µg/mL | ≤ 10 µg/mL | ≤ 10 µg/mL | ≤ 10 µg/mL | – | – | – | – | – | –
O=C1C(=O)N(CCSC(=S)N2CCN(c3ccc(Cl)c(Cl)c3)CC2)c2ccccc21 | 500 µg/mL | 500 µg/mL | > 1000 µg/mL | 100 µg/mL | 250 µg/mL | 500 µg/mL | 500 µg/mL | 200 µg/mL | 100 µg/mL | 87% | 0.25 µg/mL (≈ 0.52 µM) | 250 µg/mL (≈ 520 µM) | > 6.25 µg/mL | 92% | Non-toxic
NNC(=O)c1ccncc1 [ISONIAZID] | – | – | – | – | – | – | – | – | – | – | – | – | 0.2 µg/mL (≈ 1.46 µM) | – | –
S=C(SSC(=S)N1CCN(c2ccc(Cl)c(Cl)c2)CC1)N1CCN(c2ccc(Cl)c(Cl)c2)CC1 | 100 µg/mL | 100 µg/mL | 200 µg/mL | 62.5 µg/mL | 200 µg/mL | 62.5 µg/mL | 100 µg/mL | 100 µg/mL | 100 µg/mL | 98% | 0.25 µg/mL (≈ 0.408 µM) | 6.25 µg/mL (≈ 10.2 µM) | 6.25 µg/mL (≈ 10.2 µM) | 99% | Non-toxic
CC[C@@H](CO)NCCN[C@@H](CC)CO [ETHAMBUTOL] | – | – | – | – | – | – | – | – | – | – | – | – | 3.12 µg/mL (≈ 15.3 µM) | 99% | –
O=C1C(=O)N(CCCSC(=S)N2CCN(c3ccc(Cl)c(Cl)c3)CC2)c2ccc(Cl)cc21 | > 1000 µg/mL | > 1000 µg/mL | 500 µg/mL | 500 µg/mL | 500 µg/mL | 500 µg/mL | 200 µg/mL | 500 µg/mL | 250 µg/mL | 92% | 0.2 µg/mL (≈ 0.378 µM) | 250 µg/mL (≈ 473 µM) | > 6.25 µg/mL | 91% | Non-toxic
CCN(CC)CCCC(C)Nc1ccnc2cc(Cl)ccc12 (configuration not stated) [CHLOROQUINE] | – | – | – | – | – | – | – | – | – | – | 0.125 µg/mL (≈ 0.391 µM) | – | – | – | –

Reference: ChEMBL document CHEMBL3044829, “New carbodithioate derivatives: synthesis, characterization, and in vitro antibacterial, antifungal, antitubercular, and antimalarial activity” (Med Chem Res, 2013)
